Test results as given in ChEMBL document CHEMBL1143383, “Novel heteroaromatic organofluorine inhibitors of fructose-1,6-bisphosphatase” (J Med Chem, 2009).

biological target: T1, Fructose-1,6-bisphosphatase 1 (Mus musculus, UniProt Q9QXD6); assay: Inhibition of fructose-1,6-bisphosphatase in mouse liver homogenates by colorimetric phosphate assay; type: tissue-based
T1 sequence (Q9QXD6 whole entry): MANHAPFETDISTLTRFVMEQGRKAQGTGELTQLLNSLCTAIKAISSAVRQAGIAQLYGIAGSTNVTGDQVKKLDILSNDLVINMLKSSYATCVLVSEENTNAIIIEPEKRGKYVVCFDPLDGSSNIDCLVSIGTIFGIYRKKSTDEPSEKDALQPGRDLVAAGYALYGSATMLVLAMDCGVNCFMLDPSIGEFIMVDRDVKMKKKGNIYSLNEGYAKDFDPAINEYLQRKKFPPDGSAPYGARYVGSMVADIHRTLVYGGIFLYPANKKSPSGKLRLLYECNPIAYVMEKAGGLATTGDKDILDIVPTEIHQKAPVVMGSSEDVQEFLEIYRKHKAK

| IC50 [µM] | SMILES |
| --- | --- |
| 109 | O=[N+]([O-])c1ccc(S(=O)(=O)n2cccc2)cc1 |
| > 300 | COC(=O)c1ccc2[nH]c3ccccc3c2c1 |
| 76.2 | O=S(=O)(c1ccccc1)n1cccc1 |
| > 250 | COc1ccc(S(=O)(=O)n2c3ccccc3c3ccccc32)cc1 |
| > 300 | COc1ccc(S(=O)(=O)n2ccc3ccccc32)cc1 |
| 4.81 | CCOC(=O)CC(O)(c1[nH]c(C)cc1C)C(F)(F)F (stereo not drawn) |
| > 300 | O=[N+]([O-])c1ccc(-n2nc(-c3ccccc3)cc2-c2ccccc2)cc1 |
| > 300 | O=S(=O)(c1ccc2ccccc2c1)n1ccc2ccccc21 |
| 6.04 | FC(F)(F)c1cccc(-n2nc(-c3ccccc3)cc2-c2ccccc2)c1 |
| 151 | Fc1ccc(-c2cc(-c3ccc(F)cc3)n(-c3ccccc3)n2)cc1 |
| 3.09 | O=C(c1ccc(C(F)(F)F)cc1)n1ccc2ccccc21 |
| 246 | COc1ccc(S(=O)(=O)n2cccc2)cc1 |
| > 300 | Cc1ccc(S(=O)(=O)n2cccc2)cc1 |
| > 300 | O=C(c1ccc([N+](=O)[O-])cc1)n1ccc2ccccc21 |
| 119 | O=S(=O)(c1ccccc1)n1ccc2ccccc21 |

Continued, compound first:

| SMILES | IC50 [µM] |
| --- | --- |
| CCOC(=O)C(O)(c1c[nH]c2ccc(I)cc12)C(F)(F)F (stereo not drawn) | 13.3 |
| O=[N+]([O-])c1ccc(S(=O)(=O)n2c3ccccc3c3ccccc32)cc1 | 177 |
| Fc1ccc(-c2cc(-c3ccc(F)cc3)n(-c3cccc(C(F)(F)F)c3)n2)cc1 | 75.5 |
| COc1ccc2[nH]c3c(C)ccc(C)c3c2c1 | > 300 |
| O=C(c1ccc(F)cc1)n1ccc2ccccc21 | 129 |
| CCOC(=O)C(O)(c1ccc[nH]1)C(F)(F)F (stereo not drawn) | 25.7 |
| CCOC(=O)CC(O)(c1cccn1C)C(F)(F)F (stereo not drawn) | 41.8 |
| CCOC(=O)C(O)(c1cn(C)c2ccccc12)C(F)(F)F (stereo not drawn) | 11.9 |
| O=S(=O)(c1ccc2ccccc2c1)n1c2ccccc2c2ccccc21 | > 300 |
| CCOC(=O)CC(O)(c1ccc[nH]1)C(F)(F)F (stereo not drawn) | 25.7 |
| O=[N+]([O-])c1ccc(S(=O)(=O)n2ccc3ccccc32)cc1 | 185 |
| Cc1ccccc1S(=O)(=O)n1cccc1 | > 250 |
| CCOC(=O)C(O)(c1c[nH]c2ccc(C)cc12)C(F)(F)F (stereo not drawn) | 36 |
